From patent US20140378408A1, “NUCLEOSIDE 5'-PHOSPHOROTHIOATE ANALOGUES AND USES THEREOF” (BAR-ILAN UNIVERSITY, an Israeli University, priority 2012, published 2014)
Read-outs that look alike come from different tables or passages of the source.

Legend:
cortical neurons = assay: Neuroprotection of cultured cortical neurons exposed to FeSO4 or FeSO4/H2O2; assay type: cell-based; details: Table 2, neuroprotection of primary neurons exposed to FeSO4, read-out: IC50
Description: FIGS. 10A-10B show the neuroprotective effect of ATP-γ-S and GDP-β-S (0.2-200 μM, t=24 h) as evaluated by MTT production in cortical neurons exposed for 24 h to either FeSO4 at final concentration of 3 μM (10A); or both FeSO4 (3 μM) and H2O2 (100 μM) (10B). The results shown are the mean±SEM of three independent experiments in quadruplicate.
Cultured cortical neurons in 96-well plates were treated with different concentrations of FeSO4, or hydrogen peroxide and FeSO4, for 24 h at 37° C. Following exposure to various insults, the cells were treated with ATP-γ-S and GDP-β-S as described. Cells were subsequently incubated for a further 18-24 h as indicated before being assessed for viability measures. Neurons were treated with ATP-γ-S and GDP-β-S at three concentrations ([…]) simultaneously with 1.5, 3 or 6 μM FeSO4 for 24 h. Following 24 h incubation in the presence of both FeSO4 and ATP-γ-S and GDP-β-S cell viability measures were assessed by XTT assay. All experiments were performed in triplicate.
FeSO4 induced a concentration-dependent decrease in cell viability as assessed by XTT assay and morphological assessment following 24 h of exposure (FIG. 9). The neuroprotective effect of ATP-γ-S and GDP-β-S (due to iron chelation) was evaluated in cortical neurons exposed to FeSO4 for 24 h (FIG. 10).

human NPP1 = biological target: T1, human NPP1 (Homo sapiens, UniProt P22413); assay: Inhibition of NPP1 activity; assay type: biochemical; details: Dixon and Cornish-Bowden methods
T1 construct: made in house; host or cells: COS-7 cells (transfected; protein extract / cell lysate)
T1 sequence (P22413 1-925): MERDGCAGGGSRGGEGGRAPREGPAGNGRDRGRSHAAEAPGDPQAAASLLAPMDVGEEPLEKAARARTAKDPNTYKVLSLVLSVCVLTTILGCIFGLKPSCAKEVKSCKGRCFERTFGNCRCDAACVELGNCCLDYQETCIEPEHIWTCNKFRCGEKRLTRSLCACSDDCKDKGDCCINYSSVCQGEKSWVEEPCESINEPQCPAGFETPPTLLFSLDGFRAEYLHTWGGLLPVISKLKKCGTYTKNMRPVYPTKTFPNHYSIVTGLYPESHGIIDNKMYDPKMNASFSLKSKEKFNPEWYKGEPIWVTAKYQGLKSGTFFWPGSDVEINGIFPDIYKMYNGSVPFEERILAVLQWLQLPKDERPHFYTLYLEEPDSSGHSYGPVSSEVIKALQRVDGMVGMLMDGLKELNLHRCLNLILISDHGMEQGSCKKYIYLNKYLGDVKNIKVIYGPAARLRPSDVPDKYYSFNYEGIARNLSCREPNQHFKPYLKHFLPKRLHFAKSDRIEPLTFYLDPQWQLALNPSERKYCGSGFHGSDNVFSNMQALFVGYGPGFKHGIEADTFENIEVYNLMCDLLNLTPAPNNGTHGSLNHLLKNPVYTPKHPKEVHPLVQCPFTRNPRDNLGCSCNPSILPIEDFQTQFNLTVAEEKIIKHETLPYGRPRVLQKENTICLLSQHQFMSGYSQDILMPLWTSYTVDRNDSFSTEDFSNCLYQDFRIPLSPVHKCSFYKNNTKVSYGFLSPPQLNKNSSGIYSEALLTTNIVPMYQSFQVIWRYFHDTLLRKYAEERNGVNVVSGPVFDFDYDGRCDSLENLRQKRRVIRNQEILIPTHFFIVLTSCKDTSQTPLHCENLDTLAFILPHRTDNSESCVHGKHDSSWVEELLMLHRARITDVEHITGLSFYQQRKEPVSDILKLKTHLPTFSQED

human NPP3 = biological target: T2, human NPP3 (Homo sapiens, UniProt O14638); assay: Inhibition of NPP3 activity; assay type: biochemical; details: read-out: inhibition of NPP3 activity
T2 construct: made in house; host or cells: COS-7 cells (transfected; protein extract / cell lysate)
T2 sequence (O14638 1-875): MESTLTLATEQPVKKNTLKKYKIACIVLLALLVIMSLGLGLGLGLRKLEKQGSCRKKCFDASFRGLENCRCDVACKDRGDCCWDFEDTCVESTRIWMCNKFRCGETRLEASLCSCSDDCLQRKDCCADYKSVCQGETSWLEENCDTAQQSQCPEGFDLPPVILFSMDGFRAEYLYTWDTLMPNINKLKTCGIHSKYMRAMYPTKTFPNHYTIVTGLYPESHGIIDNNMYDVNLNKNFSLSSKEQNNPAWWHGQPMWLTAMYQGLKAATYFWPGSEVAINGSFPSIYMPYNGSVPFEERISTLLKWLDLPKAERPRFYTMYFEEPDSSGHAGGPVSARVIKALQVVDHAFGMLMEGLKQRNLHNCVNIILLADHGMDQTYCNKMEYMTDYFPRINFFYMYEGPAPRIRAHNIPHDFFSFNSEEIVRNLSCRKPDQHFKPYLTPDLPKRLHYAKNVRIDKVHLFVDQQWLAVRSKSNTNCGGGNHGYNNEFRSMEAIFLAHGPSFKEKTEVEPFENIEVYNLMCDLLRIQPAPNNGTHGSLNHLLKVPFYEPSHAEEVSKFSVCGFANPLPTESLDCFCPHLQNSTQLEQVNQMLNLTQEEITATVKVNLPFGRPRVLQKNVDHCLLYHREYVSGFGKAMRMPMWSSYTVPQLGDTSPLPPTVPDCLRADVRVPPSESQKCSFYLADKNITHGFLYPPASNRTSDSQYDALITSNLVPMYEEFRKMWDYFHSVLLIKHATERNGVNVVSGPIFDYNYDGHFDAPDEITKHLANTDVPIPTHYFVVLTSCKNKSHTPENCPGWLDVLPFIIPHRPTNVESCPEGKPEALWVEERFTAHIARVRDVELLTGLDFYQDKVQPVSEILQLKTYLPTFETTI
Description: Pnp-TMP hydrolyses were carried out at 37° C. in 0.2 ml of the following incubation mixture: in mM, 1 CaCl2, 130 NaCl, 5 KCl and 50 Tris, pH 8.5, with or without the analogue tested and/or substrates. Substrates and analogues were all used at the final concentration of 100 μM. […] For pnp-TMP hydrolysis, the production of para-nitro-phenol was measured at […], 15 min after the initiation of the reaction.
The samples were centrifuged for 5 min at 13,000×g. Supernatants were neutralized with 1 M KOH (Fisher Scientific, Ottawa, ON, Canada) at 4° C. and centrifuged for 5 min at 13,000×g.

human P2Y1-R = biological target: T3, human P2Y1-R (Homo sapiens, UniProt P47900); assay: [Ca^2+]i response of 1321N1 astrocytoma cells expressing P2Y1-R GFP; assay type: cell-based; details: agonist; read-out: EC50 at the P2Y1 receptor
T3 construct: expressed in transfected cells; host or cells: 1321N1 astrocytoma cells
Description: GFP constructs of human P2Y2-R, P2Y1-R and P2Y11-R were stably expressed in 1321N1 astrocytoma cells, which lack endogenous expression of P2X- and P2Y-receptors. The respective cDNA of the receptor gene was cloned into a pEGFPN1 vector and after transfection, using FuGENE 6 Transfection Reagent (Roche Molecular Biochemicals, Mannheim, Germany), cells were selected with 0.5 mg/ml G418 (geneticine; Merck Chemicals, Darmstadt, Germany) and grown in DMEM supplemented with 10% serum (FCS), 100 U/ml penicillin and 100 U/ml streptomycin at 37° C. and 5% CO2. The expression and cell membrane localization of the respective P2Y receptors was confirmed through the analysis of the GFP fluorescence. The functionality of the expressed GFP-labeled receptor in cells was verified by recording a change of [Ca^2+]i after stimulation with the appropriate receptor agonist.
1321N1 astrocytoma cells transfected with the respective plasmid for P2Y-R-GFP expression plated on coverslips (22 mm diameter) and grown to approximately 80% density, were incubated with 2 μM fura 2/AM and 0.02% pluronic acid in Na-HBS buffer (Hepes buffered saline: 145 mM NaCl, 5.4 mM KCl, 1.8 mM CaCl2, 1 mM MgCl2, 25 mM glucose, 20 mM Hepes/Tris pH 7.4) for 30 min at 37° C. The cells were superfused (1 ml/min, 37° C.) with different concentrations of nucleotide in Na-HBS buffer. The nucleotide-induced change of [Ca^2+] was monitored by detecting the fluorescence intensities with excitations at 340 nm and 380 nm. Only GFP-labeled cells were analyzed. Microsoft Excel (Microsoft Corp., Redmond, Wash., USA) and SigmaPlot (SPSS Inc., Chicago, Ill., USA) were used to derive the concentration-response curves and EC50 values from the average response amplitudes obtained in at least three independent experiments (Ecke et al., 2006; Ecke et al., 2008). Only cells with a clear GFP-signal and with the typical calcium response kinetics upon agonist pulse application were included in the data analysis. The nucleotide induced change of [Ca^2+]i was monitored by detecting the respective emission intensity of fura 2/AM at 510 nm with 340 nm and 380 nm excitations (Ubl et al., 1998). The average maximal amplitude of the responses and the respective standard errors were calculated from ratio of the fura 2/AM. The GFP-tagged P2Y receptors are suitable for pharmacological and physiological studies, as previously reported (Tulapurkar et al., 2004; Tulapurkar et al., 2006; Zylberg et al., 2007).

[1] = ESR OH radical assay, Fe^2+/H2O2 Fenton system; details: N/A = minimal radical production exceeds 10%
PC12 cells = assay: Inhibition of Fe(II)-induced ROS formation in PC12 cells (DCFH-DA); assay type: cell-based; details: PC12 cells, FeSO4 0.16 μM, 1 h, DCFH-DA; read-out: IC50 inhibition of ROS formation
Description: In this study, nucleoside 5′-phosphorothioate analogues were explored as inhibitors of Fe(II)-induced oxidative stress in PC12 cells used as a neuronal model. Reduction of ROS production in PC12 cells by each one of the tested analogues was measured by DCFH-DA, a radical sensitive indicator. After DCFH-DA was removed, the tested analogue was added to the cells at a final concentration of 0.2-200 μM. Oxidation was initiated by the addition of FeSO4 (0.16 μM) to the wells. The plates were incubated for 1 h at 37° C., during which the absorbance was read by a Tecan fluorometer at 485/530 nm.

Aβ28-Cu^+ complex = biological target: T4, Aβ28-Cu^+ complex (Homo sapiens, UniProt P05067); assay: Titration of Aβ28-Cu^+ complex by chelators monitored by 1H-NMR; details: 0.8 mM Aβ28-Cu^+, pD 7; for effect on Aβ28-Cu^+ 1H-NMR spectrum: 6 eq chelator
T4 construct: we first studied Aβ28, as a more soluble fragment of Aβ40; purchased Sigma-Aldrich
T4 sequence (P05067 672-699 limits assumed, one chain of several): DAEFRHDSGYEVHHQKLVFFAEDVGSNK

T3 sequence (P47900 whole entry): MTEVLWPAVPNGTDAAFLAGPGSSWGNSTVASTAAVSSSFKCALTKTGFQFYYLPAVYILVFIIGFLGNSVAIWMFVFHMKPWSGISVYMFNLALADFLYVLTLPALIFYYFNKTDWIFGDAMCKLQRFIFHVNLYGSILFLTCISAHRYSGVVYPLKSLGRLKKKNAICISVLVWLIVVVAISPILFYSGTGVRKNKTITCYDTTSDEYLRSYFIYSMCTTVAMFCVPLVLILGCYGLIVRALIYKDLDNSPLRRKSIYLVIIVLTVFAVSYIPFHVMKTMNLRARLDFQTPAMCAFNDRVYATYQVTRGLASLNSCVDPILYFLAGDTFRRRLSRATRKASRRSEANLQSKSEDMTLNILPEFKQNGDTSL

In the case of Nc1ncnc2c1ncn2[C@@H]1O[C@H](COP(=O)(O)OP(=O)(O)O)[C@@H](O)[C@H]1O [ADP, adenosine diphosphate], the IC50 (cortical neurons; Cortical neurone) is reported as 19 ± 1.9 µM.
For Nc1ncnc2c1ncn2C1OC(COP(O)(=S)OP(=O)(O)CP(=O)(O)O)C(O)C1O (stereo not drawn) [APPCP-α-S, adenosine 5′-[Pα-thio]-β,γ-methylenetriphosphate], the type of inhibition (human NPP1) was “mixed type inhibition, predominantly competitive”, the inhibition at 100 µM (human NPP3) was 23 to 43% and the EC50 (human P2Y1-R) was > 10 µM.
Molecule O=C(O)CC(O)(CC(=O)O)C(=O)O [Citrate] has an IC50 (cortical neurons; Cortical neurone) of 25 ± 3.3 µM.
Nc1nc2c(ncn2[C@@H]2O[C@H](COP(=O)(O)OP(=O)(O)O)[C@@H](O)[C@H]2O)c(=O)[nH]1 [GDP, gunosine diphosphate] showed an IC50 (cortical neurons) of 21 ± 3.1 µM.
N[C@@H](CCC(=O)N[C@@H](CS)C(=O)NCC(=O)O)C(=O)O [GSH, glutathione] showed an IC90 [1] of 491 ± 5 µM.
Nc1nc2c(ncn2[C@@H]2O[C@H](COP(=O)(O)OP(=O)(O)OP(=O)(O)O)[C@@H](O)[C@H]2O)c(=O)[nH]1 [GTP, guanosine triphosphate] gave an IC50 (cortical neurons; Cortical neurone) of 32 ± 2.3 µM.
In the case of Nc1nc2c(ncn2[C@@H]2O[C@H](COP(=O)(O)OP(=O)(O)OP(O)(O)=S)[C@@H](O)[C@H]2O)c(=O)[nH]1 [GTP-γ-S, guanosine 5′-[γ-thio]triphosphate], the IC50 (cortical neurons) is reported as 0.04 ± 0.01 µM, the IC50 (PC12 cells) is reported as 5 µM and the “equivalents at which the spectrum resembled that of pure Aβ28” value (Aβ28-Cu^+ complex) is reported as 3.2 eq.
In the case of [Na+].[Na+].[Na+].[O-]P([O-])([O-])=S [Thiophosphate, trisodiumthiophosphate], the “effect on Aβ28-Cu^+ 1H-NMR spectrum” value (Aβ28-Cu^+ complex) is reported as “significant sharpening of the Aβ28 spectrum”.
Cc1c(C)c2c(c(C)c1O)CCC(C)(C(=O)O)O2 (centres unmarked) [Trolox] showed an IC50 (cortical neurons; Cortical neurone) of 23 ± 3.1 µM.
With O=P([O-])([O-])OP(=O)([O-])OP(=O)([O-])[O-].[Na+].[Na+].[Na+].[Na+].[Na+] [triphosphate, sodium triphosphate] the “effect on Aβ28-Cu^+ 1H-NMR spectrum” value (Aβ28-Cu^+ complex) was “showed only Phe peaks reappearances without any His signals”.
